Data: patent publication US20070213339A1 (Bayer Pharmaceuticals Corporation, priority 2004, published 2007)

Each molecule was assayed on Colo205 human colon carcinoma cell line (assay: In vitro tumor cell proliferation assay (MTS, CellTiter 96 Aqueous One Solution)). Settings: COLO 205, Colo205 cells, 72 hours compound exposure, MTS absorbance at 490 nm, read-out: IC50 (concentration of test compound required to inhibit proliferation of 50% of the cells).
Format: cell-based
In short: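 Colo205 cells seeded at 2000 cells/well in RPMI-1640 with 10% serum, exposed to compound for 72 h at 37 °C, 5% CO2, in a 5-point dose-response up to 10-20 μM. Viability read by MTS absorbance at 490 nm; IC50 from background-corrected percent inhibition by linear regression.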

IC50	SMILES
< 500 nM	O=C(O)c1cn(-c2ccc(CN3CCCC3)c(F)c2)c2c(Cl)c(N3CCN(c4ccc(Cl)cc4)CC3)c(F)cc2c1=O [Example 187, 8-chloro-7-[4-(4-chlorophenyl)-piperazine-1-yl]-6-fluoro-1-(3-fluoro-4-pyrrolidin-1-ylmethyl-phenyl)-4-oxo-1,4-dihydroquinoline-3-carboxylic acid]
2000 to 20000 nM	O=C(O)c1cn(-c2cccc(CN3CCCCC3)c2)c2c(Cl)c(N3CCN(c4ccc(F)cc4)CC3)c(F)cc2c1=O [Example 67, 8-chloro-6-fluoro-7-[4-(4-fluorophenyl)-piperazin-1-yl]-4-oxo-1-[3-(piperidin-1-ylmethyl)phenyl]-1,4-dihydroquinoline-3-carboxylic acid]
< 500 nM	CC(C)N(Cc1ccc(-n2cc(C(=O)O)c(=O)c3cc(F)c(N4CCN(c5ccccn5)CC4)c(Cl)c32)cc1)C1CCCCC1 [Example 174, 8-chloro-1-{4-[(2-cyclohexyl-isopropyl-amino)-methyl]-phenyl}-6-fluoro-4-oxo-7-(4-pyridin-2-yl-piperazine-1-yl)-1,4-dihydro-quinoline-3-carboxylic acid]
2000 to 20000 nM	O=C(O)c1cn(-c2ccc(CN3CCCC3)nc2)c2c(Cl)c(N3CCN(c4ncccn4)CC3)c(F)cc2c1=O [Example 33, 8-chloro-6-fluoro-4-oxo-7-(4-pyrimidin-2-ylpiperazin-1-yl)-1-[6-(pyrrolidin-1-ylmethyl)pyridin-3-yl]-1,4-dihydroquinoline-3-carboxylic acid]
2000 to 20000 nM	O=C(O)c1cn(-c2cccc(CN3CCCCC3)c2)c2c(Cl)c(N3CCN(c4cccc(Cl)c4)CC3)c(F)cc2c1=O [Example 68, 8-chloro-7-[4-(3-chlorophenyl)piperazin-1-yl]-6-fluoro-4-oxo-1-[3-(piperidin-1-ylmethyl)phenyl]-1,4-dihydroquinoline-3-carboxylic acid]
< 500 nM	N#Cc1ccccc1N1CCN(c2c(F)cc3c(=O)c(C(=O)O)cn(-c4ccc(CN5CCCC5)cc4F)c3c2Cl)CC1 [Example 39, 8-chloro-7-[4-(2-cyanophenyl)piperazin-1-yl]-6-fluoro-1-[2-fluoro-4-(pyrrolidin-1-ylmethyl)phenyl]-4-oxo-1,4-dihydroquinoline-3-carboxylic acid]
< 500 nM	O=C(O)c1cn(-c2ccc(CN3CC[C@H](O)C3)cc2)c2c(Cl)c(N3CCN(c4ncccn4)CC3)c(F)cc2c1=O [Example 27, 8-chloro-6-fluoro-1-(4-{[(3S)-3-hydroxy-pyrrolidin-1-yl]methyl}phenyl)-4-oxo-7-(4-pyrimidin-2-ylpiperazin-1-yl)-1,4-dihydroquinoline-3-carboxylic acid]
< 500 nM	CCN(CC)Cc1ccc(-n2cc(C(=O)O)c(=O)c3cc(F)c(N4CCN(c5ccccc5C#N)CC4)c(OC)c32)cc1 [Example 117, 7-[4-(2-cyanophenyl)piperazin-1-yl]-1-{4-[(diethylamino)methyl]phenyl}-6-fluoro-8-methoxy-4-oxo-1,4-dihydroquinoline-3-carboxylic acid]
< 500 nM	COc1c(N2CCN(c3ncccn3)CC2)c(F)cc2c(=O)c(C(=O)O)cn(-c3ccc(CN4CCCCC4)cc3)c12 [Example 193, 6-fluoro-8-methoxy-4-oxo-1-(4-piperidin-1-ylmethyl-phenyl)-7-(4-pyrimidine-2-yl-piperazine-1-yl]-1,4-dihydroquinoline-3-carboxylic acid]
< 500 nM	O=C(O)c1cn(-c2ccc(CNC3CCCCC3)cc2)c2c(Cl)c(N3CCN(c4ccccn4)CC3)c(F)cc2c1=O [Example 171, 8-chloro-1-(4-cyclohexylaminomethyl-phenyl)-6-fluoro-4-oxo-7-(4-pyridin-2-yl-piperazin-1-yl)-1,4-dihydroquinoline-3-carboxylic acid]
500 to 2000 nM	COc1cc(CNC2CCCC2)ccc1-n1cc(C(=O)O)c(=O)c2cc(F)c(N3CCN(c4ccc(F)cc4)CC3)c(Cl)c21 [Example 179, 8-chloro-1-(4-cyclopentylaminomethyl-2-methoxyphenyl)-6-fluoro-7-[4-(4-fluorophenyl)-piperazine-1-yl]-4-oxo-1,4-dihydroquinoline-3-carboxylic acid]
< 500 nM	CCN(CC)Cc1ccc(-n2cc(C(=O)O)c(=O)c3cc(F)c(N4CCN(c5ncccn5)CC4)c(OC)c32)cc1 [Example 106, 1-{4-[(diethylamino)methyl]phenyl}-6-fluoro-8-methoxy-4-oxo-7-(4-pyrimidin-2-ylpiperazin-1-yl)-1,4-dihydroquinoline-3-carboxylic acid]
< 500 nM	COc1c(N2CCN(c3ccc(F)cc3)CC2)c(F)cc2c(=O)c(C(=O)O)cn(-c3ccc(CN4CCCC4)cc3)c12 [Example 74, 6-fluoro-7-[4-(4-fluorophenyl)piperazin-1-yl]-8-methoxy-4-oxo-1-[4-(pyrrolidin-1-ylmethyl)phenyl]-1,4-dihydroquinoline-3-carboxylic acid]
< 500 nM	CCN(CC)Cc1ccc(-n2cc(C(=O)O)c(=O)c3cc(F)c(N4CCN(c5ccc(F)cc5F)CC4)c(OC(F)(F)F)c32)cc1 [Example 137, 1-{4-[(diethylamino)methyl]phenyl}-7-[4-(2,4-difluorophenyl)piperazin-1-yl]-6-fluoro-4-oxo-8-(trifluoromethoxy)-1,4-dihydroquinoline-3-carboxylic acid]
< 500 nM	O=C(O)c1cn(-c2ccc(CN3CCCC3)cc2)c2c(OC(F)(F)Cl)c(N3CCN(c4ccccn4)CC3)c(F)cc2c1=O [Example 146, 8-[chloro(difluoro)methoxy]-6-fluoro-4-oxo-7-(4-pyridin-2-ylpiperazin-1-yl)-1-[4-(pyrrolidin-1-ylmethyl)phenyl]-1,4-dihydroquinoline-3-carboxylic acid]
< 500 nM	Cc1cccc(N2CCN(c3c(F)cc4c(=O)c(C(=O)O)cn(-c5ccc(CN6CCCC6)cc5F)c4c3Cl)CC2)n1 [Example 175, 8-chloro-6-fluoro-1-(2-fluoro-4-pyrrolidin-1-ylmethyl-phenyl)-7-[4-(6-methylpyridine-2-yl)-piperazine-1-yl]-4-oxo-1,4-dihydroquinoline-3-carboxylic acid]
< 500 nM	CN(C)Cc1ccc(-n2cc(C(=O)O)c(=O)c3cc(F)c(N4CCN(c5ccccn5)CC4)c(OC(F)(F)F)c32)cc1 [Example 126, 1-{4-[(dimethylamino)methyl]phenyl}-6-fluoro-4-oxo-7-(4-pyridin-2-ylpiperazin-1-yl)-8-(trifluoromethoxy)-1,4-dihydroquinoline-3-carboxylic acid]
< 500 nM	O=C(O)c1cn(-c2ccc(CN3CCCC3)cc2F)c2c(Cl)c(N3CCN(c4ccc(F)cc4)CC3)c(F)cc2c1=O [Example 41, 8-chloro-6-fluoro-7-[4-(4-fluorophenyl)-piperazin-1-yl]-1-[2-fluoro-4-(pyrrolidin-1-ylmethyl)phenyl]-4-oxo-1,4-dihydroquinoline-3-carboxylic acid]
< 500 nM	O=C(O)c1cn(-c2ccc(CNC3CC3)cc2)c2c(Cl)c(N3CCN(c4ccccn4)CC3)c(F)cc2c1=O [Example 59, 8-chloro-1-{4-[(cyclopropylamino)-methyl]phenyl}-6-fluoro-4-oxo-7-(4-pyridin-2-ylpiperazin-1-yl)-1,4-dihydroquinoline-3-carboxylic acid]
500 to 2000 nM	CCOc1ccccc1N1CCN(c2c(F)cc3c(=O)c(C(=O)O)cn(-c4ccc(CN5CCCC5)cc4)c3c2Cl)CC1 [Example 16, 8-chloro-7-[4-(2-ethoxyphenyl)piperazin-1-yl]-6-fluoro-4-oxo-1-[4-(pyrrolidin-1-ylmethyl)phenyl]-1,4-dihydroquinoline-3-carboxylic acid]
< 500 nM	CN(C)CCc1ccc(-n2cc(C(=O)O)c(=O)c3cc(F)c(N4CCN(c5ccccn5)CC4)c(Cl)c32)cc1 [Example 69, 8-chloro-1-{4-[2-(dimethylamino)ethyl]phenyl}-6-fluoro-4-oxo-7-(4-pyridin-2-ylpiperazin-1-yl)-1,4-dihydroquinoline-3-carboxylic acid]
500 to 2000 nM	CCN(CC)Cc1ccc(-n2cc(C(=O)O)c(=O)c3cc(F)c(N4CCN(c5ncccn5)CC4)c(OC(F)(F)Cl)c32)cc1 [Example 160]
< 500 nM	CCN(C)Cc1ccc(-n2cc(C(=O)O)c(=O)c3cc(F)c(N4CCN(c5ccc(F)cc5)CC4)c(OC(F)(F)Cl)c32)cc1 [Example 167, 8-[chloro(difluoro)methoxy]-1-(4-{[ethyl(methyl)amino]methyl}phenyl)-6-fluoro-7-[4-(4-fluorophenyl)piperazin-1-yl]-4-oxo-1,4-dihydroquinoline-3-carboxylic acid]
500 to 2000 nM	O=C(O)c1cn(-c2cccc(CN3CCCCC3)c2)c2c(OC(F)(F)F)c(N3CCN(c4cccc(Cl)c4)CC3)c(F)cc2c1=O [Example 145, 7-[4-(3-chlorophenyl)piperazin-1-yl]-6-fluoro-4-oxo-1-[3-(piperidin-1-ylmethyl)phenyl]-8-(trifluoromethoxy)-1,4-dihydroquinoline-3-carboxylic acid]
< 500 nM	COC[C@H]1CCCN1Cc1ccc(-n2cc(C(=O)O)c(=O)c3cc(F)c(N4CCN(c5ccccn5)CC4)c(Cl)c32)cc1 [Example 21, 8-chloro-6-fluoro-1-(4-{[(2R)-2-(methoxy-methyl)pyrrolidin-1-yl]methyl}phenyl)-4-oxo-7-(4-pyridin-2-ylpiperazin-1-yl)-1,4-dihydroquinoline-3-carboxylic acid]
500 to 2000 nM	COc1c(N2CCN(c3ccccc3C#N)CC2)c(F)cc2c(=O)c(C(=O)O)cn(-c3ccc(CN(C)C)cc3)c12 [Example 95, 7-[4-(2-cyanophenyl)piperazin-1-yl]-1-{4-[(dimethylamino)methyl]phenyl}-6-fluoro-8-methoxy-4-oxo-1,4-dihydroquinoline-3-carboxylic acid]
2000 to 20000 nM	O=C(O)c1cn(-c2cccc(CN3CCCCC3)c2)c2c(OC(F)(F)F)c(N3CCN(c4ccccc4F)CC3)c(F)cc2c1=O [Example 144, 6-fluoro-7-[4-(2-fluorophenyl)piperazin-1-yl]-4-oxo-1-[3-(piperidin-1-ylmethyl)phenyl]-8-(trifluoromethoxy)-1,4-dihydroquinoline-3-carboxylic acid]
